According to patent publication US6960559B1, “Neurite growth regulatory factors” (University of Zurich, priority 1988, dated 2005):
Several values for one entry are separate records, joined by “and”; a condition that tells them apart may be missing. Identical values can stand only once. Like-named read-outs stand apart in the source and are kept apart here. Where a SMILES comes first, the peptide text is derived from it. [ ]: non-standard residue; d: D form. The star is where a group is joined. Sta = CC(C)C[C@H](N)[C@@H](O)CC(=O)O; Isovaleryl = CC(C)CC(=O)*; Cbz = O=C(OCc1ccccc1)*

Tests used:
[1] = tested on: C6 plasma membrane associated metalloendoprotease; assay: Enzyme assay: cbz-FAF[125I]Y-NH2 degradation by C6 plasma membranes with protease blockers; assay type: biochemical, rat
Protocol: For most experiments, 70-80% confluent cell layers (1 cm^2 wells, 100 μl MEMα) or 2-5 μg C6 plasma membrane (100 μl MEMα) were used. […] If indicated, cell layers or plasma membrane suspensions were preincubated for 30 min with protease blockers or peptides. NEM or iodacetamide incubations of plasma membranes were performed at pH 8.5. The incubation was stopped by loading a 10 μl aliquot of the incubation medium on a thin layer chromatography plate (10 cm height, Kieselgel 60 F254, MERCK, Germany) and air dried. […] Plates were then air dried and exposed on Kodak X-OMAT films (NY, USA) with an intensifying screen. To identify the degradation products on thin-layer chromatography, we run reference peptides under the same conditions.
For the quantification of the activity, the reaction was stopped by addition of an equal volume of chloroform. […] Activity is expressed as % radioactivity contained in the aqueous phase. 100% is the sum of the radioactivity of both phases.

[2] = tested on: C6 cells; assay: C6 cell spreading on CNS myelin or PLYS with protease inhibitors; assay type: cell-based, rat; conditions: for Inhibition on CNS (%): spreading on PLYS minus spreading on CNS myelin
Protocol: Rat C6, mouse NIH 3T3 and B16 cells were cultured in Dulbecco's modified Eagle's medium (DMEM) supplemented with 10% fetal calf serum (FCS), usually to maximally 70-80% confluency. Cells were harvested with a short trypsin treatment (0.1% in Ca^2+/Mg^2+-free Hank's medium for 90 seconds) stopped by addition of FCS in excess, collected by centrifugation. Cells were resuspended in either DMEM/FCS or defined serum-free medium (MEM) and used for experiments. Dissociated rat CNS glial cells were prepared starting from optic nerves of 6-7 days old Lewis rats as described in Section 6.1.1, supra and plated into poly-D-lysine (PLYS) coated wells (100 mm^2, 100 μl medium) at a density of 20,000 cells per well. The culture medium was an enriched L15 medium with 5% rat serum, penicillin and streptomycin. C6, 3T3 and B16 cells were added to 2 day old cultures at a concentration of 30,000 cells per well, incubated for two hours and fixed with warm 4% formalin in phosphate buffer. Inhibitory oligodendrocytes were identified by double labelling using the specific antibodies O1 and O4 (see Section 6.1.3, supra).
Myelin from rat spinal cord (CNS) or sciatic nerve (PNS) purified on a discontinuous sucrose gradient as described in Section 6.1.5., was dried overnight onto PLYS coated wells (20 μg protein/well of 100 mm^2 surface). Unbound membranes were removed by three washes with Ca^2+/Mg^2+-free Hank's solution. Myelin coated wells were immediately used in substrate testing assays by the addition of 9,000 cells (C6, 3T3, or B16) per cm^2. Alternatively, we used extracted CNS myelin protein, or SDS-PAGE purified 35 and 250 kD inhibitory proteins reconstituted in liposomes (see Section 7.1.5, supra). Experiments were scored at different time points using a phase contrast microscope equipped with a photocamera. Quantifications were done using a surface integration program; three arbitrary fields were photographed for each well at a magnitude of 80×, at least 25 cells per picture were measured. Each point represents the mean of at least 3 wells±SEM. Results are expressed as μ^2 of projected cell surface, or as degree, which was calculated by subtracting from the projected surface value of a spreading cell, the surface value of a completely spheric cell.

[3] = tested on: C6 glioblastoma cells; assay: cells; assay type: cell-based, rat; conditions: Rattus norvegicus, 2 h
Protocol: Rat C6 glioblastoma cells (Benda et al., 1968, Science 161:370-371) were cultured in Dulbecco's modified Eagle's medium (DMEM) supplemented with 10% fetal calf serum (FCS), usually to maximally 70-80% confluency (Paganetti et al., 1988, J. Cell Biol. 107:2281-2291). All cell culture media were routinely supplemented with penicillin and streptomycin. Cells were harvested by a short trypsin treatment (0.1% in Ca^2+/Mg^2+-free [CMF] PBS/EDTA solution for 90 seconds) followed by addition of DMEM/10% FCS and centrifugation (600×g, 6 min). The cell pellet was rinsed with 5 ml DMEM/10% FCS and centrifuged. For cell spreading assays, cells were resuspended at 10^6/ml in defined serum-free medium (MEMα) supplemented with 0.2 μg/ml insulin, 0.5 μg/ml transferrin and 0.12 μg/ml bovine serum albumin (BSA). Protease blockers or peptides were added directly to the cell suspension from 10×solutions 10 min before plating.
Spinal cord myelin from young adult Lewis rats was purified on a discontinuous sucrose gradient (Colman et al., 1982, J. Cell Biol. 95:598-608; Schwab and Caroni, 1988, J. Neurosci. 8:2381-2393) and stored in 100 mM sucrose, 25 mM TRIS/HCl pH 7.4 at −80° C. up to 6 months. The myelin suspension ([…]) was incubated for 30 min on poly-D-lysine-coated wells (PLYS-wells). Unbound myelin membranes were removed by rinsing twice with CMF-Hank's and once with MEMα. Myelin-coated wells were used immediately for the spreading assay by adding 9'000 C6 cells per cm^2. Experiments were scored as described (Paganetti et al., 1988, J. Cell Biol. 107:2281-2291).

[4] = tested on: C6 cells; assay: C6 cell attachment and spreading on rat cerebellar frozen sections; assay type: cell-based; conditions: 1,10-phenanthroline 50-300 μM; cbz-tyr-tyr 100 μM
Protocol: Adult rat cerebellum frozen sections were prepared and dried on glass coverslips. 70,000 C6, 3T3, or B16 cells in 100 μl were added to each well containing slices previously rinsed with cold DMEM/FCS. Cultures were incubated for 2 days at 37° C. Cultures were then fixed and stained with cresyl violet. Three to four cerebellum slices were used per point per experiment, with each experiment being repeated at least 2 times.

[5] = tested on: 3T3 cells; assay: Treatment of CNS myelin with C6 plasma membranes, 3T3 spreading and 3H-thymidine incorporation; assay type: cell-based, mouse; conditions: 3T3 spreading on CNS myelin pretreated with C6 plasma membranes
Protocol: C6 cells grown to 80% confluency were washed twice with Hank's medium, and harvested in 20 ml 8.5% sucrose, 50 mM NaCl, 10 mM Tris buffer, pH 7.4, using a rubber policeman. After mechanical homogenization through a series of needles of decreasing size, a low purity plasma membrane fraction was obtained by centrifugation (5 minutes at 3000×g, 10 minutes at 8000×g, and then 2 hours at 100,000×g). A higher purity fraction was isolated by loading the material on a discontinuous sucrose gradient, containing 50 mM NaCl, 10 mM Tris, pH 7.4 (Quigley, 1976, J. Cell Biol. 71: 472-486). 20-40% sucrose interphase (C6 plasma membranes fraction) and 40-60% sucrose interphase (C6 mitochondrial fraction) were collected, washed in Hank's medium and resuspended in MEM.
CNS myelin coated PLYS wells were prepared as described in the previous section, but instead of being immediately tested as substrate, they were first incubated with 50 μl of C6 plasma membranes (containing 0.8 mg protein/ml MEM) at 37° for 30 minutes. Dishes were then rinsed twice with Hank's medium and immediately used as substrates for 3T3 cells. In some experiments, protease blockers were added to the membranes using 10 times concentrated solutions.

[6] = tested on: cbz-FAF[^125I]Y-NH2; assay: Degradation of cbz-FAF[125I]Y-NH2 by defined proteases and C6 cell fractions; assay type: biochemical
Protocol: Preparation of plasma membrane from C6 cells was performed according to (Raper and Kapfhammer, 1990, Neuron 2:21-29) with some modifications. Briefly, C6 cells were cultured in 30 culture dishes (13.5 cm diameter). At confluency, the culture medium was removed and the cell layers were frozen to −20° C. All subsequent manipulations were performed at 4° C.: cell debris were collected using a rubber policeman in 100 ml CMF-Hank's and further homogenized by 10 strokes in a Dounce homogenizer with teflon plunger. A small aliquot of this suspension was stored at −20° C. and used later (homogenate-fraction). The nuclear pellet was obtained by low speed centrifugation (10 min, 1000×g) in a Sorvall S22 rotor and stored at […] A crude vesicular fraction was obtained by centrifugating the nuclear supernatant in a Sorvall S22 rotor (20,000×g, 30 min), and was resuspended in 10 ml CMF-Hank's. After adding 20 ml 2.25 M sucrose in CMF-Hank's, this suspension was loaded on 4×8 ml 2.25 M sucrose in CMF-Hank's and centrifuged at 80,000×g for 1 h in a Beckman SW28 motor. Plasma membranes were harvested at the top and the mitochondrial fraction at the interphase of this 2 step gradient. Both fractions were diluted 10× with CMF-Hank's and pelleted (Beckman TI80, 22,000×g, 30 min). The two pellets were resuspended in 2 ml MEMα (1.3 mg protein/ml) supplemented with 0.5 mM DTT and stored at −20° C.
For most experiments, 70-80% confluent cell layers (1 cm^2 wells, 100 μl MEMα) or 2-5 μg C6 plasma membrane (100 μl MEMα) were used. Reactions were started by the addition of 10 μl cbz-FAF[^125I]Y-NH2 (SEQ ID NO:2) (2 μM in MEMα, 10,000-30,000 cpm). If indicated, cell layers or plasma membrane suspensions were preincubated for 30 min with protease blockers or peptides. NEM or iodacetamide incubations of plasma membranes were performed at pH 8.5. The incubation was stopped by loading a 10 μl aliquot of the incubation medium on a thin layer chromatography plate (10 cm height, Kieselgel 60 F254, MERCK, Germany) and air dried. Thin layer chromatography was routinely run with CHCl3:CH3OH:CH3COOH 32% (5:3:1). Plates were then air dried and exposed on Kodak X-OMAT films (NY, USA) with an intensifying screen. To identify the degradation products on thin-layer chromatography, we run reference peptides under the same conditions.
For the quantification of the activity, the reaction was stopped by addition of an equal volume of chloroform. This simple procedure allowed us to separate an organic phase containing the unreacted substrate cbz-FAF[^125I]Y-NH2 and an aqueous phase containing the charged degradation products (see also FIG. 30). Activity is expressed as % radioactivity contained in the aqueous phase. 100% is the sum of the radioactivity of both phases.

[7] = C6 cells, 1,10-phenanthroline 0.3 mM, antibody as labelled or none, 150 minutes

Row | Effect on cbz-FAF[^125I]Y-NH2 degradation by C6 plasma membranes, in words [1] | Molecule | Inhibition on CNS (%) ([2]; C6 cells) | Effect on neutralization of CNS myelin inhibitory activity by C6 plasma membranes, in words [5] | Amount necessary to degrade 50% of substrate in 30 min ([6]; 37° C., pH 7.4) | other results
1 | completely blocked the degradation | c1cnc2c(c1)ccc1cccnc12 [1,10-phenanthroline] | 67% | completely blocked the C6 plasma membrane effect |  | IC50 [1]: 200 µM; Effect on cbz-FAF[^125I]Y-NH2 degradation by C6 plasma membranes, in words ([1]; listed as o-phenanthroline): blocked completely either activities; Effect on C6 cell spreading on control substrates (PLYS, glass, PNS myelin), in words ([2]; 1,10-phenanthroline up to 0.5 mM): did not impair C6 cell spreading; Concentration exerting a general toxic effect on all substrates ([2]; C6 cells, 3 hours): above 0.5 mM; % inhibition on CNS lipos. ([2]; C6 cells, 1,10-phenanthroline 0.3 mM, antibody as labelled or none): 46%; Spreading value on CNS lipos. [2, 7]: 1.35 μm^2 10^3; Spreading value on PLYS [2, 7]: 2.49 μm^2 10^3; IC50 ([2]; Rattus norvegicus, C6, Section 9, read-out: Half maximal inhibition (IC50) of C6 spreading on CNS myelin): 200 µM; Maximal inhibition of C6 cell spreading on CNS myelin ([2]; after 2 hours in culture): up to 67%; IC50 ([3]; C6 cell spreading on CNS myelin, read-out: IC50 on CNS myelin): 200 µM; IC50 ([3]; C6 cell spreading on PLYS, read-out: IC50 PLYS): 600 µM; C6 cells on white matter of cerebellar frozen sections, in words [4]: dramatically changed the distribution and behavior of C6 cells on the white matter areas
2 |  | NC(=O)[C@H](Cc1ccccc1)NC(=O)CNC(=O)OCc1ccccc1 [cbz-gly-phe-NH2, carbobenzoxy-glycine-phenylalanine-amide] (Cbz-Gly-Phe-NH2) | 55% | completely blocked the C6 plasma membrane effect |  | 
3 | had no effect | CC(C)CC(=O)N[C@H](C(=O)N[C@H](C(=O)N[C@@H](CC(C)C)[C@@H](O)CC(=O)N[C@@H](C)C(=O)N[C@@H](CC(C)C)[C@@H](O)CC(=O)O)C(C)C)C(C)C [pepstatine] (Isovaleryl-VV[Sta]A[Sta]-OH) | 3% | did not inhibit this effect |  | 
4 |  | cathepsin D: acidic protease |  |  | >100 µg | Amount giving half maximal activity on cbz-FAFY-NH2 ([6]; pH 4.0): 5 ng; Amount necessary to degrade 50% of substrate in 30 min ([6]; pH 4.0): 0.005 µg
5 |  | collagenase |  |  | 3 µg and 3.0 µg | 
6 |  | trypsin |  |  | 0.3 µg | 

Row | Molecule | Effect on cbz-FAF[^125I]Y-NH2 degradation by C6 plasma membranes, in words [1] | Inhibition on CNS (%) ([2]; C6 cells) | Effect on neutralization of CNS myelin inhibitory activity by C6 plasma membranes, in words [5] | Amount necessary to degrade 50% of substrate in 30 min ([6]; 37° C., pH 7.4) | other results
7 | CC(=O)N[C@@H](CC(C)C)C(=O)N[C@@H](CC(C)C)C(=O)N[C@H](C=O)CCCNC(=N)N [leupeptine] | had no effect | 8% | did not inhibit this effect |  | 
